In patent US5807874A, “Trisbenzimidazoles useful as topoisomerase I inhibitors” (Rutgers, The State University of New Jersey, priority 1995, dated 1998):
“Also recorded” adds a separate entry of the source.

Key:
[1] = tested on: calf thymus topoisomerase I; assay: Topoisomerase I-mediated DNA cleavage assay (calf thymus topoisomerase I); format: biochemical; details: for potency as topoisomerase I inhibitor (in words): compared with Hoechst 33342 or with each other; for Topo I-mediated DNA cleavage (REC, Relative Effective Concentration): concentration relative to Hoechst 33342 (arbitrarily 1) producing the same cleavage on plasmid DNA, calf thymus topoisomerase I
From the text: DNA topoisomerase I was purified from calf thymus gland as reported previously by B. D. Halligan et al., J. Biol. Chem. 260, 2475 (1985). Plasmid YEpG was also purified by the alkali lysis method followed by phenol deproteination and CsCl/ethidium isopycnic centrifugation as described by T. Mariatis et al., Molecular Cloning, A Laboratory Manual, Cold Spring Harbor Labs, N.Y. (1982) at pages 149-185. The end-labeling of the plasmid was accomplished as previously described by L. F. Liu et al., J. Biol. Chem., 258, 15365 (1983). The cleavage assays were performed as previously reported by A. Y. Chen et al., Cancer Res. 53, 1332 (1993). Human topoisomerase was isolated as a recombinant fusion protein using a T7 expression system.
^b Topoisomerase I cleavage values are reported as REC, Relative
Effective Concentration, i.e. concentrations relative to Hoechst 33342,
whose value is arbitrarily assumed as 1, that are able to produce the sam
cleavage on the plasmid DNA in the presence of calf thymus topoisomerase
I. Cleavage is calculated from the intensity of the strongest Hoechst

tumor cells = assay: Cytotoxicity to tumor cells (cell line not specified); format: cell-based; details: for cytotoxicity of 3- and 4-pyridyl versus 2-pyridyl analog (in words): relative to the 2-pyridyl derivative, 14
KBV-1 cells [2] = details: as reported by A. Y. Chen et al., Adv. Pharmacol. (1994); cited from earlier work
minor groove of DNA = details: literature; cited from earlier work
CPT-K5 [3] = assay: MTT cytotoxicity assay, camptothecin-resistant CPT-K5; format: cell-based, human
Experimental: (§1) The cytotoxicity was determined using the as MTT-microtiter plate tetrazolinium cytotoxicity assay (MTA) following the procedures of F. Denizot et al., J. Immunol. […] The cytotoxicity assay was performed using 96-well microtiter plates. Cells were grown in suspension at 37° C. in 5% CO2 and maintained by regular passage in RPMI medium supplemented with 10% heat inactivated fetal bovine serum, L-glutamine (2 mM), penicillin (100 U/ml), and streptomycin (0.1 mg/ml). For determination of IC50, cells were exposed continuously with varying concentrations of drug concentrations and MTT assays were performed at the end of the fourth day.

[4] = cited from earlier work
topoisomerase I = details: Hoechst 33342; cited from earlier work
KBV-1 cells [5] = assay: MTT cytotoxicity assay, multidrug-resistant KBV-1 (overexpresses MDR1); format: cell-based, human; details: KB 3-1 versus KB V-1
Experimental: as §1
These cells were grown as monolayer cultures at in 5% CO2 and maintained by regular passage in Dulbecco's minimal essential medium supplemented with 10% heat inactivated fetal bovine serum. KBV-1 cells were similarly maintained except they were grown in the presence of 1 μg/ml vinblastine.

[6] = tested on: human MDR1 (P-glycoprotein); assay: MDR1 (P-glycoprotein) substrate, inferred from KB 3-1 versus KB V-1 cytotoxicity; format: cell-based; details: inferred from KB 3-1 / KB V-1 IC50 values
Experimental: The drug sensitive human epidermoid carcinoma KB3-1 cell line (S. Aliyama et al., Somatic Cell Mol. Genet., 11, 117 (1985)) and its vinblastine-selected multidrug-resistant variant KBV-1 cells (D. W. Shen et al., Science, 32, 643 (1986)) were provided by Dr. Michael Gottesmann (National Cancer Institute, Bethesda, Md.). These cells were grown as monolayer cultures at in 5% CO2 and maintained by regular passage in Dulbecco's minimal essential medium supplemented with 10% heat inactivated fetal bovine serum. KBV-1 cells were similarly maintained except they were grown in the presence of 1 μg/ml vinblastine.

CPT-K5 [7] = details: as reported by A. Y. Chen et al., Cancer Res., 53, 1332 (1993); cited from earlier work

CCCc1ccc2[nH]c(-c3ccc4[nH]c(-c5ccc6[nH]cnc6c5)nc4c3)nc2c1 [Compound 12, 5-Propyl-2-[2'-(benzimidazol-5"-yl)benzimidazol-5'-yl]benzimidazole]
potency as topoisomerase I inhibitor (in words) [1]: much less active than either 10, 11, or 13 | Topo I-mediated DNA cleavage (REC, Relative Effective Concentration) [1]: 100 | cytotoxicity to tumor cells (in words, general) (tumor cells): weak cytotoxicity

N#Cc1ccc2[nH]c(-c3ccc4[nH]c(-c5ccc6[nH]cnc6c5)nc4c3)nc2c1 [Compound 11, 5-Cyano-2-[2'-(benzimidazol-5"-yl)benzimidazol-5'-yl]benzimidazole]
Topo I-mediated DNA cleavage (REC, Relative Effective Concentration) [1]: 1

c1ccc2[nH]c(-c3ccc4[nH]c(-c5ccc6[nH]cnc6c5)nc4c3)nc2c1 [Compound 10, 2-[2'-(Benzimidazol-5"-yl)benzimidazol-5'-yl]benzimidazole]
Topo I-mediated DNA cleavage (REC, Relative Effective Concentration) [1]: 1.1

c1cc(-c2ccc3[nH]c(-c4ccc5[nH]c(-c6ccc7[nH]cnc7c6)nc5c4)nc3c2)ccn1 [Compound 16, 5-(4-Pyridyl)-2-[2'-(benzimidazol-5"-yl)benzimidazol-5'-yl]benzimidazole]
potency as topoisomerase I inhibitor (in words) [1]: somewhat more active than the 2-pyridyl derivative, 14 | Topo I-mediated DNA cleavage (REC, Relative Effective Concentration) [1]: 2 | cytotoxicity of 3- and 4-pyridyl versus 2-pyridyl analog (in words) (tumor cells): somewhat more active than the 2-pyridyl derivative, 14

N#Cc1ccc2[nH]c(-c3ccc4[nH]cnc4c3)nc2c1 [Compound 19, 5-Cyano-2-(benzimidazol-5'-yl)benzimidazole]
Topo I-mediated DNA cleavage (REC, Relative Effective Concentration) [1]: 1000

CCOc1ccc(-c2nc3cc(-c4nc5cc(N6CCN(C)CC6)ccc5[nH]4)ccc3[nH]2)cc1 [Hoechst 33342, 2'-(4-ethoxyphenyl)-5-(4-methyl-1-piperazinyl)-2,5'-bi-1H-benzimidazole]
IC50 difference, KB 3-1 as compared to KB V-1 cells (literature) (KBV-1 cells [2]): approximately two-orders of magnitude | binding to DNA (minor groove of DNA): binds to the minor groove of DNA | effect against camptothecin-resistant CPT-K5 cells (in words) (CPT-K5 [3]): effective against camptothecin-resistant CPT-K5 cells | protonation at physiological pH [4]: extensively protonated at physiological pH | topoisomerase I inhibition (literature) (topoisomerase I): inhibitor of topoisomerase I; also recorded: traps the reversible cleavable complex derived from DNA and topoisomerase I

c1ccc(-c2ccc3[nH]c(-c4ccc5[nH]c(-c6ccc7[nH]cnc7c6)nc5c4)nc3c2)cc1 [Compound 13, 5-Phenyl-2-[2'(benzimidazol-5"-yl)benzimidazol-5'-yl]benzimidazole]
potency as topoisomerase I inhibitor (in words) [1]: approximately one-half as potent as Hoechst 33342 | Topo I-mediated DNA cleavage (REC, Relative Effective Concentration) [1]: 2 | effect against camptothecin-resistant CPT-K5 cells (in words) (CPT-K5 [3]): effective against camptothecin-resistant CPT-K5 cells | IC50 difference between KB 3-1 and KB V-1 cells (in words) (KBV-1 cells [5]): little difference | substrate for human MDR1 [6]: appears not to be a substrate for human MDR1

c1cncc(-c2ccc3[nH]c(-c4ccc5[nH]c(-c6ccc7[nH]cnc7c6)nc5c4)nc3c2)c1 [Compound 15, 5-(3-Pyridyl)-2-[2'-(benzimidazol-5"-yl)benzimidazol-5'-yl]benzimidazole]
potency as topoisomerase I inhibitor (in words) [1]: somewhat more active than the 2-pyridyl derivative, 14 | Topo I-mediated DNA cleavage (REC, Relative Effective Concentration) [1]: 2 | cytotoxicity of 3- and 4-pyridyl versus 2-pyridyl analog (in words) (tumor cells): somewhat more active than the 2-pyridyl derivative, 14

CC[C@@]1(O)C(=O)OCc2c1cc1n(c2=O)Cc2cc3ccccc3nc2-1 [camptothecin]
relative resistance of camptothecin (CPT-K5 [7]): 2,500 fold

c1ccc(-c2ccc3[nH]c(-c4ccc5[nH]c(-c6ccc7[nH]cnc7c6)nc5c4)nc3c2)nc1 [Compound 14, 5-(2-Pyridyl)-2-[2'-(benzimidazol-5"-yl)benzimidazol-5'-yl]benzimidazole]
Topo I-mediated DNA cleavage (REC, Relative Effective Concentration) [1]: 3.3 | antifungal activity (Antifungal activity): exhibits antifungal activity
